Experimental findings from US10597719B2, “Detection kit and simple method for detecting target nucleic acids” (National University Corporation Gunma University, priority 2015, dated 2020) are described below.

The target of one test is 22AG. Nature of the test: Fluorescence titration, binding of dye to 22AG. Set-up: species or system human. As for the experimental part: (§1) The following six kinds of G4-forming human-derived oligonucleotides were used:
(§2) telomere regions (22AG and 26Tel);
(§3) Each of the eight kinds of oligonucleotides (22AG, 26Tel, 27Myc, 22Kit, 20Src, 18Ras, ssDNA, and dsDNA) was dissolved in the buffer TRS50K, PBS150K, PBS140KM, or PBS153NM at a concentration of 21 μM, and denatured by heating at 95° C. (or at 40° C. for 18Ras) for 0.5 minute using a thermal cycler, followed by cooling the resulting solution to 25° C. at a rate of 0.5° C./minute to allow refolding. Each solution was diluted to an appropriate oligonucleotide concentration, and its aliquots (50 μL each) were incubated at 25° C. for 30 minutes, followed by mixing each aliquot with 20 μL of a solution of a dye (ThT, ThT-DB, or ThT-HE; 10.5 μM) in the buffer TRS50K, PBS150K, PBS140KM, or PBS153NM. These mixtures were incubated at 25° C. for 30 minutes. An emission spectrum of each dye was obtained by excitation at 415 nm and monitoring of fluorescence between 450 nm and 600 nm.
(§4) FIGS. 3-4 to 3-6 show relative fluorescence intensities as the peaks of the emitted light at 485 nm (ThT and ThT-HE) or 500 nm (ThT-DB) with respect to the intensity of the dye that interacted with dsDNA, which was taken as 1. The X-axis represents the oligonucleotide concentration.

In the next test the target is 26Tel. Nature of the test: Fluorescence titration, binding of dye to 26Tel. On the set-up: species or system human. As for the experimental part: as §1, §2, §3, §4
The subject of the next test is 27Myc. The test can be described thus: Fluorescence titration, binding of dye to 27Myc. On the set-up: species or system human. The note with it: for Kd: read-out: Kd 27Mye. As for the experimental part: as §1
the nuclease-sensitive element region of the c-Myc P1 promoter (27Myc);
as §3, §4

A further test has as its target 22Kit. The test can be described thus: Fluorescence titration, binding of dye to 22Kit. Set-up: species or system human. As for the experimental part:
as §1
the 87-nucleotide upstream region of the transcription initiation site of a proto-oncogene encoding tyrosine kinase (22Kit);
as §3, §4

The target of the next test is 20Src. The test can be described thus: Fluorescence titration, binding of dye to 20Src. The settings on record: n.d. cells, read-out: Kd 20Sre. On the set-up: species or system human. As for the experimental part: as §1
a proto-oncogene encoding a nonreceptor tyrosine kinase (20Src); and
as §3, §4

Another test addresses 18Ras. The test can be described thus: Fluorescence titration, binding of dye to 18Ras. On the set-up: species or system human. As for the experimental part: as §1
the 5′-untranslated region of a human NRAS proto-oncogene transcript (18Ras).
as §3, §4

The next test has as its target ssDNA. The test can be described thus: Fluorescence titration, binding of dye to ssDNA standard. The settings on record: n.d. cells. As for the experimental part:
(§5) Besides these sequences, the following two kinds of oligonucleotides were used as standards:
(§6) The ssDNA was used as a single-stranded DNA, and the cDNA was used as a double-stranded DNA (dsDNA) by mixing with the ssDNA at a ratio of 1:1.
as §3, §4

The next test deals with dsDNA. The test can be described thus: Fluorescence titration, binding of dye to dsDNA standard. The settings on record: for Kd: n.d. cells; for emission of fluorescence in the presence of dsDNA: dye 3 μM in PBS153NM, dsDNA 0-15 μM (FIG. 2). As for the experimental part:
as §5, §6, §3, §4

The subject of a further test is target G4. The test can be described thus: Affinity of dyes to the target G4, overall comparison from Table 1. Format: binding, human. The note with it: according to Table 1. As for the experimental part: as §3, §4

Where two headings read alike, the source gives them in different places. Bounds are passed on as bounds.

Usually Kd stands for the equilibrium constant for the complex coming apart. Take `Cc1ccc2c(c1)sc(-c1ccc(N(C)C)cc1)[n+]2CCO` [ThT-HE]: the Kd at 22AG (buffer PBS150K) was 17.6 ± 3.6 µM; at 22AG (buffer PBS153NM, n.d. cells), more than 40 µM; at 26Tel (buffer PBS150K), 10.6 ± 2.9 µM; at 26Tel (buffer PBS153NM, n.d. cells) it was more than 40 µM; on 27Myc (buffer PBS150K), 23.9 ± 1.4 µM; at 27Myc (buffer PBS153NM), 13.7 ± 1.4 µM. Further, the Kd at 22Kit (buffer PBS150K) was 40 ± 9 µM; at 22Kit (buffer PBS153NM), 12.3 ± 1.8 µM; on 20Src (buffer PBS150K), more than 40 µM; at 20Src (buffer PBS153NM), more than 40 µM; at 18Ras (buffer PBS150K) it was 20.9 ± 2.8 µM; on 18Ras (buffer PBS153NM), 28.5 ± 9.7 µM. The Kd on ssDNA (buffer PBS150K), on ssDNA (buffer PBS153NM), at dsDNA (buffer PBS150K) and at dsDNA (buffer PBS153NM) was more than 40 µM throughout. In addition, the “specificity to guanine quadruplex” value with 27Myc (27Myc versus dsDNA, PBS153NM (FIG. 2)) is reported as “high specificity to guanine quadruplex”. Further, the “emission of fluorescence in the presence of dsDNA” value with dsDNA is on record as “hardly show fluorescence”. Besides, the “affinity to the target G4 compared with ThT” value with target G4 is “generally lower than affinity of ThT”.
As for `Cc1ccc2c(c1)sc(-c1ccc(N(C)C)cc1)[n+]2C.[Cl-]` [ThT, thioflavin T, reference compound], the Kd at 22AG (buffer PBS150K) is 7.3 ± 0.3 µM; on 22AG (buffer PBS153NM, n.d. cells) it was more than 40 µM; at 26Tel (buffer PBS150K), 5 ± 0.8 µM; at 26Tel (buffer PBS153NM), 25.3 ± 1.5 µM; on 27Myc (buffer PBS150K), 8.7 ± 1 µM; on 27Myc (buffer PBS153NM), 7.2 ± 0.6 µM. The Kd at 22Kit (buffer PBS150K) was 12.3 ± 1.8 µM; at 22Kit (buffer PBS153NM) it was 7.2 ± 0.9 µM; on 20Src (buffer PBS150K), more than 40 µM; on 20Src (buffer PBS153NM), more than 40 µM; on 18Ras (buffer PBS150K) it was 10.3 ± 3 µM; at 18Ras (buffer PBS153NM), 16 ± 4.2 µM. For the same molecule, the Kd on ssDNA (buffer PBS150K), at ssDNA (buffer PBS153NM), at dsDNA (buffer PBS150K) and at dsDNA (buffer PBS153NM) was more than 40 µM throughout. Further, the “emission of fluorescence in the presence of dsDNA” value with dsDNA was “considerable level of emission of fluorescence”.
